Laboratory results as given in patent US7064112B1, “Pharmaceutical compositions comprising an adenosine receptor agonist or antagonist” (Can-Fite Biopharma Ltd., priority 1999, dated 2006).

What was measured:
[1] = system: peripheral blood leukocytes and neutrophils; details: for total white blood cell count after cyclophosphamide: i.p. adenosine 25 μg/kg or IB-MECA 3 or 6 μg/kg at 48 and 72 hours, FIG. 10A
Method: A further experiment was conducted in order to evaluate the chemoprotective effect of A3RAg. Mice were treated with cyclophosphamide (50 mg/kg body weight in 0.3 ml PBS). After 48 and 72 hours from administration of the cytotoxic drug, the mice were injected i.p. with adenosine (25 μg/kg body weight) or with IB-MECA (3 or 6 μg/kg body weight in 0.2 ml PBS). The number of white blood cells (WBC) and neutrophils was tested.

[2] = system: white blood cells (WBC); details: CYP 50 mg/kg i.p.; blood 124 hours after chemotherapy; FIG. 13
Method: Each group consisted of 10 mice and the experiment was repeated twice.
The CYP was injected intraperitoneally in 0.2 ml of PBS which served as the carrier.
Anti-G-CSF antibodies were intravenously injected (in 0.2 ml PBS) 72 hours following the administration of the chemotherapeutic drugs.
Blood samples were withdrawn 124 hours following chemotherapy. White blood cells (WBC) counts were made in a Coulter counter and differential cell counts were carried on smear preparations stained with May-Grundvald-Giemsa solution.

[3] = system: Nb2-11C rat lymphoma cells; assay: Nb2-11C lymphoma cell growth, cell count assay; format: cell-based; details: for effect of receptor antagonist on the effect of adenosine on proliferation of Nb2-11C cells: 0.1 μM antagonist in combination with adenosine 25 μM, FIG. 5B; for growth inhibition of Nb2-11C lymphoma cells by receptor agonists: 0.01 μM agonist, 48 hours, FIG. 5A
Method: Nb2-11C rat lymphoma cells (1.2×10^4 cells/ml) were incubated for 48 hours in 96 well microtiter plates with 1 ml RPMI medium containing 5% fetal bovine serum. Either 25 μM adenosine, 0.01 μM of an adenosine receptor agonists (CPA, an A1RAg; DPMA, an A2RAg or IB-MECA, an A3RAg) or 0.1 μM of an adenosine receptor antagonists (DPCPX, an A1RAn; DMPX, an A2RAn; or MRS-1220, an A3RAn) in combination with adenosine (25 μM) was added.
Cultures containing cells suspended in RPMI medium with 5% FBS served as controls for the above detailed experiment. Extent of cell proliferation was measured by a cell count assay.
Briefly, Nb2-11C lymphoma or bone marrow cells were incubated in the presence of either adenosine, or IB-MECA.

[4] = system: bone marrow cells; assay: Bone marrow cell proliferation, [3H]-thymidine incorporation assay; format: cell-based, C57BL/6J or ICR mice; details: for reduction of the increase in bone marrow cell proliferation as compared to adenosine alone: antagonist in combination with adenosine
Method: Bone marrow cells derived from the femur of C57BL/6J mice were used. The cells were prepared as previously described.
For this purpose, bone marrow cells obtained from the femur of C57BL/6J or ICR mice were first disaggregated by passing through a 25 G needle. Then, the cells (3×10^5 cells/well, in 96 microtiter plates) were incubated with RPMI medium containing 10% fetal bovine serum (FBS) in the presence of adenosine (25 μM). Adenosine or agonists to the A1 and A3 adenosine receptors—CPA (an A1RAg, 0.01 μM), CCPA (an A1RAg, 0.01 μM), or IB-MECA (an A3RAg, 0.01 μM), were added to the bone marrow cultures in the absence of adenosine; an A1 adenosine receptor antagonist, DPCPX (0.1 μM), was added to a bone marrow culture in the presence of adenosine (25 μM).
Cultures containing cells suspended in RPMI medium and 5% FBS served as the control for the above detailed experiment.
[^3H]-Thymidine incorporation assay was used to evaluate the proliferation of the bone marrow cells. For this purpose, after 30 hours of incubation, each well was pulsed with 1 μCi [^3H]-Thymidine. After a total of 48 hours of incubation, the cells were harvested and the [^3H]-Thymidine uptake was determined in an LKB liquid scintillation counter (LKB, Piscataway, N.J., USA).
Cell proliferation was evaluated as described above.
The cumulative effect on the proliferation of bone marrow cells, when using a combination of an A1RAgm1 A3RAg, (CPA and IB-MECA) was evaluated. Cells, after being disaggregated, were incubated in the presence of either adenosine (25 μM), CPA (0.01 μM), IB-MECA (0.01 μM) or a combination of IB-MECA and CPA (each in a concentration of 0.01 μM) and further treated as described above.
In order to compare the effect of adenosine receptor antagonist on the proliferation of bone marrow cells, following the same methodology described above, cells were incubated with adenosine alone or in combination with either DMPX (an A2RAn), DPCPX (an A1RAn), MRS-1220 (an A3RAn) or with a combination of DPCPX and MRS-1220.
Cells pre-treated as described above, were incubated at different concentrations of IB-MECA (1 μM, 0.1 μM or 0.01 μM).
Bone marrow cells (3×10^6 cell/ml) were incubated in wells of 96 microtiter plates. […] Cell proliferation was measured by [^3H]-thymidine incorporation assay.
B-16 melanoma cells (5×10^5 cells/ml) and bone marrow cells (3×10^6 cells/ml) were incubated in wells of 96 microtiter plate. […] Cell proliferation was measured by the [^3H]-thymidine incorporation assay mentioned before.
Murine bone marrow cells were cultured as described above. […] The antagonist was added at a concentration of 10 nM.

[5] = Weight of nude mice treated with 5-FU and/or Cl-IB-MECA; format: in vivo, nude mice (BALB/C origin); details: FIG. 11; for weight of the mice as compared to control: day 7, 10 and 14, 5-FU 30 mg/kg i.p. five days, or Cl-IB-MECA 6 μg/kg oral every second day, alone
[6] = system: HCT-116 human colon cancer cells; assay: HCT-116 human colon carcinoma tumor growth in nude mice; format: in vivo; details: for tumor growth (tumor size), combined therapy experiment: 5-FU 30 mg/kg i.p. 5 days, Cl-IB-MECA 5 μg/kg oral every other day, FIGS. 15 and 16
Method: Tumors were established by subcutaneous injection of 1×10^6 HCT-116 human colon cancer cells to nude mice (BALB/C origin) (Harlan, Jerusalem, Israel). […] Mice that were treated with the vehicle only (PBS). Each group consisted of 10 mice. Tumor growth rate was determined by measuring two orthogonal diameters of each tumor twice a week, and the tumor size was estimated according to the following formula: π/6[D1D2]. The results are depicted in FIG. 14. […] 1×10^6 HCT-116 cells were injected subcutaneously to nude mice. One day later, 5-FU (30 mg/kg body weight, in 0.2 ml PBS) was intraperitoneally injected and subsequently in 4 additional consecutive days. […] Mice that were treated either with the vehicle only (PBS) or with 5-FU served as control. Each group consisted of 10 mice. Tumor growth rate was determined by measuring two orthogonal diameters of each tumor twice a week, and the tumor size was estimated according to the following formula: π/6[D1D2].

[7] = system: B-16 melanoma cells; assay: B-16 melanoma cell proliferation, [3H]-thymidine incorporation assay; format: cell-based, Murine; details: FIG. 18
Method: B-16 melanoma cells (5×10^5 cells/ml) and bone marrow cells (3×10^6 cells/ml) were incubated in wells of 96 microtiter plate. The culture consisted of RPMI medium supplemented with 10% FTS: […] Cell proliferation was measured by the [^3H]-thymidine incorporation assay mentioned before.

[8] = system: white blood cells and bone marrow nucleated cells; assay: Doxorubicin-induced myelotoxicity in ICR mice; format: in vivo; details: doxorubicin 10 mg/kg i.p., Cl-IB-MECA 6 μg/kg oral at 24, 48, 72 hours
Method: ICR mice were treated with doxorubicin (injection of 10 mg/kg i.p. in 0.5 ml PBS). […] At 72 hours, 96 hours, 120 hours and 144 hours, the mice were sacrificed and blood samples were withdrawn. In addition, bone marrow cells were aspirated from the femur of the mice and a cell count of nucleated cells from this aspirated preparation was made, following staining of the preparation with Coomassie Blue.

## O=P1(N(CCCl)CCCl)NCCCO1 (stereo not drawn) [cyclophosphamide, Cyclophosphamide, reference compound]
[1]; cyclophosphamide 50 mg/kg only
  number of peripheral blood leukocytes and neutrophils, cytotoxic drug only: decline in the number of peripheral blood leukocytes and neutrophils
[2]
  number of peripheral blood WBC, cyclophosphamide only: decline in the number of peripheral blood WBC

## CCCn1c(=O)c2[nH]c(C3CCCC3)nc2n(CCC)c1=O [DPCPX, 1,3-dipropyl-8-cyclopentylxanthine, reference compound]
[3]
  effect of receptor antagonist on the effect of adenosine on proliferation of Nb2-11C cells: essentially no effect
[4]; FIG. 3B
  reduction of the increase in bone marrow cell proliferation as compared to adenosine alone: about 50%

## OC[C@H]1O[C@@H](n2cnc3c(NC4CCCC4)ncnc32)[C@H](O)[C@@H]1O [CPA, N-cyclopentyladenosine]
[3]
  growth inhibition of Nb2-11C lymphoma cells by receptor agonists: No growth inhibition

## CNC(=O)[C@H]1O[C@@H](n2cnc3c(NCc4cccc(I)c4)nc(Cl)nc32)[C@H](O)[C@@H]1O [Cl-IB-MECA]
[1]; mouse, in vivo
  white blood cells and neutrophils after chemotherapy, experiment with Cl-IB-MECA: chemoprotective activity
[5]; Cl-IB-MECA 6 μg/kg oral administered together with 5-FU 30 mg/kg i.p.
  5-FU-induced weight loss: prevented some of this weight loss
[5]
  weight of the mice as compared to control: did essentially not give rise to any weight loss
[6]
  tumor growth (tumor size), combined therapy experiment: marked inhibition of tumor growth
[6]; Cl-IB-MECA 6 μg/kg oral every other day, FIG. 14
  tumor growth (tumor size): marked inhibition of tumor growth
[4]; 1 or 10 nM, FIG. 20
  effect on proliferation of bone marrow cells: dose dependent
[4]; Cl-IB-MECA 0.01 μM or 0.1 μM, FIG. 18
  proliferation of bone marrow cells: proliferation stimulation effect
[7]; Cl-IB-MECA 0.01 μM or 0.1 μM
  proliferation of B-16 melanoma cells: inhibitory effect
[8]; FIG. 12A
  number of peripheral white blood cells after doxorubicin: marked increase
[8]; FIG. 12B
  number of bone marrow nucleated cells after doxorubicin: marked increase

## Nc1ncnc2c1ncn2[C@@H]1O[C@H](CO)[C@@H](O)[C@H]1O [adenosine]
[1]; cyclophosphamide 50 mg/kg
  total white blood cell count after cyclophosphamide: restored

## O=C(Cc1ccccc1)Nc1nc2ccc(Cl)cc2c2nc(-c3ccco3)nn12 [MRS-1220, 9-chloro-2-(2-furanyl)-5-[(phenylacetyl)amino] [1,2,4,]-triazolo[1,5-c]quinazoline]
[3]
  effect of receptor antagonist on the effect of adenosine on proliferation of Nb2-11C cells: substantially abolished
[3]; FIGS. 7A–7B, tumor and normal cells
  therapeutic effect of A3RAg (IB-MECA) when A3 receptor antagonist employed: reversed
[4]; FIG. 3B
  reduction of the increase in bone marrow cell proliferation as compared to adenosine alone: about 50%

## COc1cc(OC)cc(C(CNc2ncnc3c2ncn3[C@@H]2O[C@H](CO)[C@@H](O)[C@H]2O)c2ccccc2C)c1 (stereo partly drawn) [DPMA, N^6-[2-(3,5-dimethoxyphenyl)-2-(2-methylphenyl)-ethyl] adenosine]
[3]
  growth inhibition of Nb2-11C lymphoma cells by receptor agonists: lower growth inhibition

## CCCOC(=O)c1c(-c2ccccc2)nc(CC)c(C(=O)SCC)c1CCC [MRS-1523, reference compound]
[4]; with Cl-IB-MECA 0.01 μM or 0.1 μM, FIG. 18
  proliferation of bone marrow cells in the presence of MRS-1523: unchanged versus control
[7]; with Cl-IB-MECA 0.01 μM or 0.1 μM
  proliferation of B-16 melanoma cells in the presence of MRS-1523: unchanged versus control

## O=c1[nH]cc(F)c(=O)[nH]1 [5-FU, 5-fluoro-uracyl, reference compound]
[5]
  weight of the mice as compared to control: profound effect on the weight of the mice
[6]
  tumor growth (tumor size), combined therapy experiment: marked inhibition of tumor growth

## C#CCn1c(=O)c2c(ncn2C)n(C)c1=O [DMPX, 3,7-dimethyl-1-propargyl-xantane, reference compound]
[3]
  effect of receptor antagonist on the effect of adenosine on proliferation of Nb2-11C cells: minor, however still significant effect
[4]; compared to adenosine alone, FIG. 3B
  proliferation of bone marrow cells, adenosine in combination with receptor antagonist: increased proliferation of bone marrow cells which even exceeded that of adenosine alone

## CNC(=O)[C@H]1O[C@@H](n2cnc3c(NCc4cccc(I)c4)ncnc32)[C@H](O)[C@@H]1O [IB-MECA, 1-deoxy-1-{6-[({3-iodophenyl}methyl)amino]-9H-purine-9-yl}-N-methyl-β-D-ribofuranuronamide]
[1]; cyclophosphamide 50 mg/kg, IB-MECA i.p. at 48 and 72 hours
  complete recovery of total white blood cell count after: 168 h
[1]; cyclophosphamide 50 mg/kg
  total white blood cell count after cyclophosphamide: restored
[3]
  growth inhibition of Nb2-11C lymphoma cells by receptor agonists: markedly inhibited
[3]; FIG. 7A
  effect on growth of tumor cells (Nb2-11C lymphoma): inhibiting the growth of tumor cells
[4]; 1 or 10 nM, FIG. 20
  effect on proliferation of bone marrow cells: dose dependent
[4]; FIG. 7B
  effect on proliferation of bone marrow cells: stimulating the proliferation of bone marrow cells
[4]; IB-MECA 1 μM, 0.1 μM or 0.01 μM
  stimulation of bone marrow cell proliferation: stimulates proliferation of bone marrow in a dose dependent manner
